Legend:
[1] = system: high fat diet (HFD) rabbit model of metabolic-associated steatohepatitis (MASH); test: HFD rabbit study, prolonged 4-week treatment: liver histomorphology and immunohistochemistry; assay type: in vivo, New Zealand White rabbits; details: weeks 9–12; for Ballooning score 0 (no ballooning), share of animals / Ballooning score 1 (few ballooned cells), share of animals / Ballooning score 2 (prominent ballooning), share of animals / Fibrosis (Ishak Score) 0, share of animals / Fibrosis (Ishak Score) 1, share of animals / Fibrosis (Ishak Score) 2, share of animals / Fibrosis (Ishak Score) 3, share of animals / Fibrosis (Ishak Score) 4, share of animals / Fibrosis (Ishak Score) 5, share of animals / Inflammation score 0 (no foci), share of animals / Inflammation score 1 (<2 foci), share of animals / Inflammation score 2 (2–4 foci), share of animals / Inflammation score 3 (> 4 foci), share of animals: n=7
Method: After 1 week (W) of RD, the animals (n = 44) were randomly assigned to the following groups (Table 1B): • Control rabbits continued to receive a RD for 12 weeks and were treated with vehicle for 5 days a week (days 1–5, p.o.) during the last 4 weeks before culling (RD + 4W Veh group); • Rabbits received a HFD for 8 weeks and were culled (HFD 8W group); • Rabbits received a HFD for 12 weeks and were treated with vehicle for 5 days a week (days 1–5, p.o.) during the last 4 weeks before culling (HFD+4W Veh group); • Rabbits received a HFD for 12 weeks and were treated with GB1211 (0.3 mg/kg) for 5 days a week (days 1–5, p.o.) during the last 4 weeks before culling (HFD + 4W 0.3 mg group); • Rabbits received a HFD for 12 weeks and were treated with GB1211 (1.0 mg/kg) for 5 days a week (days 1–5, p.o.) during the last 4 weeks before culling (HFD + 4W 1.0 mg group); • Rabbits received a HFD for 12 weeks and were treated with GB1211 (5.0 mg/kg) for 5 days a week (days 1–5, p.o.) during the last 4 weeks before culling (HFD + 4W 5.0 mg group).
Liver specimens were fixed in 10% buffered formalin (Sigma-Aldrich Corp., St. Louis, MO), paraffin embedded and sectioned at a thickness of 5 μm with a microtome. The slides were stained with hematoxylin and eosin (H&E; both Bio-Optica, Milan, Italy), following standard protocols for histological analysis, to evaluate the general morphology and tissue structure, and then analyzed to evaluate inflammation and […] using Giemsa and Masson’s trichrome staining, respectively. Briefly, deparaffinized and rehydrated sections were incubated with Giemsa (Bio-Optica) in distilled water at ratio 1:1 or with Masson’s trichrome (Bio-Optica), following the manufacturer’s instructions, as previously described ([Vignozzi et al., 2014]). To evaluate lipid accumulation, liver specimens were also cryosectioned at a thickness of 8 μm, fixed with 4% paraformaldehyde, treated for 2–5 min with isopropanol and stained with Oil Red O (Bio-Optica) for 20 min, following the manufacturer’s instructions.
In liver, collagen content evaluation for fibrosis grade and quantification was conducted by staining using Picrosirius Red Stain kit (Bio-Optica), as per manufacturer’s instructions. Briefly, deparaffinized and rehydrated sections were incubated with the staining solution for 50 min, rinsed with the appropriate reagents and with distilled water, dehydrated through ascending alcohols and xylene, and mounted, as previously described ([Comeglio et al., 2017]).
The expression of RAM11, galectin-3, and vimentin was evaluated by immunohistochemical analysis on 5 μm thick paraffin embedded liver sections. Briefly, deparaffinized and rehydrated sections were incubated overnight at 4°C with mouse monoclonal anti-RAM11 (1:80; Dako, Carpenteria, CA), mouse monoclonal anti-galectin-3 (1:100; Abcam, Cambridge, United Kingdom) or mouse monoclonal anti-vimentin (1:800; Santa Cruz Biotechnology, Dallas, TX) antibodies, followed by biotinylated anti-mouse secondary antibody (Millipore, Burlington, MA) and streptavidin-peroxidase complex (Millipore). The reaction product was developed with 3′,3′-diaminobenzidine tetrahydrochloride as chromogen (Merck KgaA, Darmstadt, Germany). Negative controls were performed avoiding primary antibody. Percentage of the sampled area for galectin-3 and vimentin staining was obtained on ×200 and ×40 original magnification slides, respectively, using ImageJ software on five fields for each slide. Semi-quantitative staining of percentage of the sampled area for Picrosirius Red, Oil Red O, galectin-3 and vimentin was obtained using open source Java-based ImageJ software (Fiji bundle, https://imagej.net/). All slides were evaluated blindly and photographed using a Nikon Microphot-FXA microscope (Nikon, Tokyo, Japan).

[2] = molecular target: mouse galectin-3; set-up: method as in Zetterberg et al., 2022; details: ref Zetterberg et al., 2022; read-out: binding affinity for mouse galectin-3; cited from earlier work

Compound: OC[C@H]1O[C@H](Sc2cncc(Br)c2)[C@H](O)[C@@H](n2cc(-c3cc(F)c(F)c(F)c3)nn2)[C@H]1O [selvigaltin]
- Picrosirius Red percentage of fibrosis area ([1]; HFD rabbits, 0.3 mg and 5.0 mg dosages): only partially counteracted
- Ballooning score 0 (no ballooning), share of animals ([1]; HFD rabbits, 0.3 mg/kg p.o.): 0.0%
- Ballooning score 1 (few ballooned cells), share of animals ([1]; HFD rabbits, 0.3 mg/kg p.o.): 42.9%
- Ballooning score 2 (prominent ballooning), share of animals ([1]; HFD rabbits, 0.3 mg/kg p.o.): 57.1%
- Fibrosis (Ishak Score) 0, share of animals ([1]; HFD rabbits, 0.3 mg/kg p.o.): 0.0%
- Fibrosis (Ishak Score) 1, share of animals ([1]; HFD rabbits, 0.3 mg/kg p.o.): 14.3%
- Fibrosis (Ishak Score) 2, share of animals ([1]; HFD rabbits, 0.3 mg/kg p.o.): 0.0%
- Fibrosis (Ishak Score) 3, share of animals ([1]; HFD rabbits, 0.3 mg/kg p.o.): 57.1%
- Fibrosis (Ishak Score) 4, share of animals ([1]; HFD rabbits, 0.3 mg/kg p.o.): 28.6%
- Fibrosis (Ishak Score) 5, share of animals ([1]; HFD rabbits, 0.3 mg/kg p.o.): 0.0%
- Inflammation score 0 (no foci), share of animals ([1]; HFD rabbits, 0.3 mg/kg p.o.): 14.3%
- Inflammation score 1 (<2 foci), share of animals ([1]; HFD rabbits, 0.3 mg/kg p.o.): 42.8%
- Inflammation score 2 (2–4 foci), share of animals ([1]; HFD rabbits, 0.3 mg/kg p.o.): 42.8%
- Inflammation score 3 (> 4 foci), share of animals ([1]; HFD rabbits, 0.3 mg/kg p.o.): 0.0%
- Ballooning score 0 (no ballooning), share of animals ([1]; HFD rabbits, 1.0 mg/kg p.o.): 0.0%
- Ballooning score 1 (few ballooned cells), share of animals ([1]; HFD rabbits, 1.0 mg/kg p.o.): 85.7%
- Ballooning score 2 (prominent ballooning), share of animals ([1]; HFD rabbits, 1.0 mg/kg p.o.): 14.3%
- Fibrosis (Ishak Score) 0, share of animals ([1]; HFD rabbits, 1.0 mg/kg p.o.): 0.0%
- Fibrosis (Ishak Score) 1, share of animals ([1]; HFD rabbits, 1.0 mg/kg p.o.): 0.0%
- Fibrosis (Ishak Score) 2, share of animals ([1]; HFD rabbits, 1.0 mg/kg p.o.): 85.7%
- Fibrosis (Ishak Score) 3, share of animals ([1]; HFD rabbits, 1.0 mg/kg p.o.): 14.3%
- Fibrosis (Ishak Score) 4, share of animals ([1]; HFD rabbits, 1.0 mg/kg p.o.): 0.0%
- Fibrosis (Ishak Score) 5, share of animals ([1]; HFD rabbits, 1.0 mg/kg p.o.): 0.0%
- Inflammation score 0 (no foci), share of animals ([1]; HFD rabbits, 1.0 mg/kg p.o.): 14.3%
- Inflammation score 1 (<2 foci), share of animals ([1]; HFD rabbits, 1.0 mg/kg p.o.): 71.4%
- Inflammation score 2 (2–4 foci), share of animals ([1]; HFD rabbits, 1.0 mg/kg p.o.): 14.3%
- Inflammation score 3 (> 4 foci), share of animals ([1]; HFD rabbits, 1.0 mg/kg p.o.): 0.0%
- Liver steatosis (Oil Red O staining) ([1]; HFD rabbits, 1.0 mg/kg, not significantly different from controls): mild beneficial effect
- Picrosirius Red percentage of fibrosis area ([1]; HFD rabbits, 1.0 mg/kg, p < 0.05 vs. HFD + Veh): normalized
- Vimentin positivity in liver ([1]; HFD rabbits, 1.0 mg/kg, p = 0.072 vs. HFD + Veh): borderline reduction
- Ballooning score 0 (no ballooning), share of animals ([1]; HFD rabbits, 5.0 mg/kg p.o.): 0.0%
- Ballooning score 1 (few ballooned cells), share of animals ([1]; HFD rabbits, 5.0 mg/kg p.o.): 57.1%
- Ballooning score 2 (prominent ballooning), share of animals ([1]; HFD rabbits, 5.0 mg/kg p.o.): 42.9%
- Fibrosis (Ishak Score) 0, share of animals ([1]; HFD rabbits, 5.0 mg/kg p.o.): 0.0%
- Fibrosis (Ishak Score) 1, share of animals ([1]; HFD rabbits, 5.0 mg/kg p.o.): 0.0%
- Fibrosis (Ishak Score) 2, share of animals ([1]; HFD rabbits, 5.0 mg/kg p.o.): 42.8%
- Fibrosis (Ishak Score) 3, share of animals ([1]; HFD rabbits, 5.0 mg/kg p.o.): 42.8%
- Fibrosis (Ishak Score) 4, share of animals ([1]; HFD rabbits, 5.0 mg/kg p.o.): 14.3%
- Fibrosis (Ishak Score) 5, share of animals ([1]; HFD rabbits, 5.0 mg/kg p.o.): 0.0%
- Inflammation score 0 (no foci), share of animals ([1]; HFD rabbits, 5.0 mg/kg p.o.): 0.0%
- Inflammation score 1 (<2 foci), share of animals ([1]; HFD rabbits, 5.0 mg/kg p.o.): 100.0%
- Inflammation score 2 (2–4 foci), share of animals ([1]; HFD rabbits, 5.0 mg/kg p.o.): 0.0%
- Inflammation score 3 (> 4 foci), share of animals ([1]; HFD rabbits, 5.0 mg/kg p.o.): 0.0%
- Liver steatosis (Oil Red O staining) ([1]; HFD rabbits, 0.3, 1.0, 5.0 mg/kg): without significant differences among HFD groups
- Galectin-3 immunohistochemical positivity in liver ([1]; HFD rabbits, all selvigaltin treatments (0.3, 1.0, 5.0 mg/kg)): only partially abated
- Kd [2]: 770 nM

From PMC11322497 (Frontiers in Pharmacology, 2024)
